Results: PMC10707221, “A Novel Lipase from Streptomyces exfoliatus DSMZ 41693 for Biotechnological Applications” (International Journal of Molecular Sciences, 2023)

Tested on: T1, SeLipC
T1 construct: gene lipC; Full gene with native signal peptide (33 aa) expressed in Rhodococcus sp; T104 (pENV19), secreted; purified on phenyl sepharose; The printed nt borders (870 nt) give about 289 codons, not 33 + 259
Assay: colorimetric p-nitrophenol release at […] nm, nonlinear hyperbolic fit
Type: biochemical, Streptomyces exfoliatus
Conditions: 50 mM Tris/HCl pH 8.0, 37 °C; pNPP 10-800 µM; standard assay with isopropanol, gum arabic and sodium deoxycholate

Km: 49.6 ± 11.2 µM
Compound: CCCCCCCCCCCCCCCC(=O)Oc1ccc([N+](=O)[O-])cc1 [pNPP, p-nitrophenyl palmitate]
